From PubChem BioAssay AID1205 (EPA DSSTox, 2008)
Calls of active or inactive are those of the source.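 Rule for the calls: active = tumour findings in long-term animal cancer tests in more than one sex, species or organ; inactive = no tumour finding and more than one negative test.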

Experiment: DSSTox (CPDBAS) Carcinogenic Potency Database Summary MultiCellCall Results
Conditions: animal carcinogenicity bioassays, multi-cell call summary
Method in brief: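 ActivityScore sums 50 for multispecies, 30 for multisex and 20 for multisite positivity. Based on the most positive experiment per sex-species across standardised chronic rodent and other animal cancer tests.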

SMILES | outcome
Cn1cc(OCC(O)CNC(C)(C)C)c2ccccc2c1=O (stereo not drawn) | inactive; multisex inactive; multispecies inactive
CC(C)OC(=O)COc1ccc(Cl)cc1Cl | inactive; multisex inactive
COCCl | active; multispecies active
C=C1C(CCl)(CCl)C2(Cl)C(Cl)C(Cl)C1(Cl)C2(Cl)Cl (stereo not drawn) | active; multisex active
CCOP(=S)(OCC)Oc1ccc2c(C)c(Cl)c(=O)oc2c1 | inactive; multisex inactive; multispecies inactive
Cc1ccc(S(=O)(=O)NC(=O)NN2CCCCCC2)cc1 | inactive; multisex inactive; multispecies inactive
Clc1ccccc1Cl | inactive; multisex inactive; multispecies inactive
Oc1ccccc1O | active; multisex active; multispecies active
CCNc1nc(Cl)nc(NC(C)C)n1 | active; multisite active; multisex active
CN(C)CNc1nnc(/C=C/c2ccc([N+](=O)[O-])o2)o1 | active; multisite active
CNCCc1ccc(OC(=O)C(C)C)c(OC(=O)C(C)C)c1 | inactive; multisex inactive
CC1(C)COC1=O | active; multisex active
CC1=C(/C=C/C(C)=C/C=C/C(C)=C/C(=O)O)C(C)(C)CCC1 | inactive; multisex inactive; multispecies inactive
Nc1ccc(NC(=O)c2ccc(N)cc2)cc1 | inactive; multisex inactive
CC(O)COC(C)(C)C (stereo not drawn) | active; multisex active
COC(=O)C1=C(C)NC(C)=C(C(=O)OCCc2ccc(N3CCN(C(c4ccccc4)c4ccccc4)CC3)cc2)C1c1cccc([N+](=O)[O-])c1 (stereo not drawn) | inactive; multisex inactive; multispecies inactive
O=NN(CCCC(F)(F)F)CCCC(F)(F)F | active; multisite active; multisex active
Clc1ccc(Cl)cc1 | active; multisite active; multisex active; multispecies active
CC(=O)Nc1ccc2c(c1)C(=O)c1ccccc1-2 | active; multisite active
NCCCC(N)(C(=O)O)C(F)F (stereo not drawn) | inactive; multisex inactive
CC(I)C1OCC(CO)O1 (stereo not drawn) | active; multisite active; multisex active; multispecies active
Nc1ccc(NCCO)c([N+](=O)[O-])c1 | inactive; multisex inactive; multispecies inactive
CCN(CC)N=O | active; multisite active; multisex active; multispecies active

SMILES | outcome
CCCCN(CCCCO)N=O | active; multisite active; multisex active
O=S(=O)(Oc1ccc(Cl)cc1)c1ccc(Cl)cc1 | inactive; multisex inactive
CC#N | inactive; multisex inactive; multispecies inactive
CC(=O)Nc1ccc(O)cc1 | active; multisite active; multisex active; multispecies active
C[C@]12CC[C@@H]3c4ccc(OC(=O)Cc5ccc(N(CCCl)CCCl)cc5)cc4CC[C@H]3[C@@H]1CC[C@@H]2OC(=O)Cc1ccc(N(CCCl)CCCl)cc1 | active; multisite active; multisex active
NCCS(=O)(=O)O | inactive; multisex inactive
N[C@@H](CCC(=O)O)C(=O)O | inactive; multisex inactive; multispecies inactive
O=[N+]([O-])c1ccc(NCCO)c(OCCO)c1 | inactive; multisex inactive; multispecies inactive
CNC(=O)O/N=C(\SC)C(=O)N(C)C | inactive; multisex inactive; multispecies inactive
O=C/C=C/c1ccccc1 | inactive; multisex inactive; multispecies inactive
COc1cc(/C=N/NC(=O)c2ccncc2)ccc1O | active; multisite active
Clc1cc2c(cc1Cl)Oc1cc(Cl)c(Cl)cc1O2 | active; multisite active; multisex active; multispecies active
Cc1ccc([N+](=O)[O-])cc1N | active; multisite active; multisex active
CN(C)[C@@H]1C(=O)C(C(N)=O)=C(O)[C@@]2(O)C(=O)C3=C(O)c4c(O)cccc4[C@@](C)(O)[C@H]3[C@H](O)[C@@H]12 | inactive; multisex inactive; multispecies inactive
Nc1ccc(Oc2ccc(N)cc2)cc1 | active; multisite active; multisex active; multispecies active
CCCN(N)C=O | active; multisite active; multisex active
C=Cc1cccc(C)c1 | inactive; multisex inactive; multispecies inactive
S=C([S-])NCCNC(=S)[S-].[Zn+2] | inactive; multisex inactive; multispecies inactive
Nc1ccccc1N | active; multisex active; multispecies active
ClC(Cl)(Cl)Cl | active; multisite active; multisex active; multispecies active
ClC(Cl)(Cl)c1ccccc1 | active; multisite active
Nc1ccc(/C=C/c2ccc(N)cc2S(=O)(=O)O)c(S(=O)(=O)O)c1 | inactive; multisex inactive; multispecies inactive
O=C1C2CC=CCC2C(=O)N1SC(Cl)(Cl)Cl (stereo not drawn) | active; multisite active; multisex active; multispecies active

SMILES | outcome
Oc1ccc(O)cc1 | active; multisite active; multisex active; multispecies active
O=NN1CCCCCC1 | active; multisite active; multisex active
CCCCCc1cc(O)c2c(c1)OC(C)(C)[C@@H]1CCC(C)=C[C@@H]21 | inactive; multisex inactive; multispecies inactive
CCCCN(CC)C(=O)SCCC | inactive; multisex inactive
CC(=O)CN(N=O)C(=O)NCCCl | active; multisex active
Cc1cccc(Nc2cc(Cl)nc(SCC(=O)O)n2)c1C | active; multispecies active
CC(=O)[O][Sn]([c]1ccccc1)([c]1ccccc1)[c]1ccccc1 | inactive; multisex inactive
CCCCN(N)CCCC | active; multisite active; multisex active
Nc1nc(N)c2nc(-c3ccccc3)c(N)nc2n1 | active; multisex active
S=[Se] | active; multisite active; multisex active; multispecies active
CC1(C)C(=O)Nc2ccc(C3=NNC(=O)CC3)cc21 | active; multisex active
CN(CCO)N=O | active; multisite active
CCOP(=S)(OCC)Oc1cc(C)nc(C(C)C)n1 | inactive; multisex inactive; multispecies inactive
CCN(CC)CC#CC(C)(C)OC(=O)C(O)(c1ccccc1)C1CCCCC1 (stereo not drawn) | inactive; multisex inactive; multispecies inactive
NNC(=O)c1ccccc1 | active; multisite active; multisex active
CCOC(=O)C(C)(C)Oc1ccc(Cl)cc1 | active; multisite active
Cc1ccc2c(-c3cccc(O)c3)nc(=O)n(C(C)C)c2c1 | inactive; multisex inactive; multispecies inactive
Oc1ccccc1-c1ccccc1 | active; multisite active; multisex active
Cc1ccc2ccccc2c1 | inactive; multisex inactive
O=C1CN=C(c2ccccc2)c2cc(Cl)ccc2N1CC1CC1 | inactive; multisex inactive; multispecies inactive
OC[C@H]1O[C@@H]2O[C@H]3[C@H](O)[C@@H](O)[C@@H](O[C@H]4[C@H](O)[C@@H](O)[C@@H](O[C@H]5[C@H](O)[C@@H](O)[C@@H](O[C@H]6[C@H](O)[C@@H](O)[C@@H](O[C@H]7[C@H](O)[C@@H](O)[C@@H](O[C@H]8[C@H](O)[C@@H](O)[C@@H](O[C@H]1[C@H](O)[C@H]2O)O[C@@H]8CO)O[C@@H]7CO)O[C@@H]6CO)O[C@@H]5CO)O[C@@H]4CO)O[C@@H]3CO | inactive; multisex inactive; multispecies inactive
CCN(CC)C(=S)S | inactive; multisex inactive; multispecies inactive
